7 compounds from paper PMC6949951, “α-Glucosidase Inhibition and Molecular Docking Studies of Natural Brominated Metabolites from Marine Macro Brown Alga Dictyopteris hoytii” (Marine Drugs, 2019) can be followed below.

The term IC50 denotes the concentration that inhibits the measured activity by half.

The target of this test is α-Glucosidase (E.C.3.2.1.20) enzyme (Saccharomyces cerevisiae) (Saccharomyces cerevisiae, UniProt P53341). The experiment in a line: biochemical. The class given is biochemical. The protocol: α-Glucosidase (E.C.3.2.1.20) enzyme (Saccharomyces cerevisiae) inhibition activity was carried out by using previously described method. The enzyme (0.2 μ/mL) solution in phosphate buffered saline (PBS) (0.1 M, pH 6.8) with different concentrations of tested compounds (1, 0.5, 0.25, 0.125, 0.0625 and 0.0312 mM) at 37 °C were incubated for 15 min. After incubation, 0.7 mM p-nitrophenyl-α-D-glucopyranoside (a chromogenic substrate) was added and the change in absorbance was recorded at 400 nm for 30 min by microplate spectrophotometer (xMark™, BIO-RAD, California, LA, United States) per production of p-nitrophenyl. Al the isolated compounds were dissolve in DMSO (7.5% final) along with control. […] The IC50 values were calculated by using different concentrations of tested compounds. The results were processed by MS-Excel and Ez-fit software programs. The % inhibition was calculated by using the following formula:% Inhibition = 100 −(OD test well/OD control) × 100.
α-Glucosidase (E.C.3.2.1.20) enzyme (Saccharomyces cerevisiae), sequence (P53341 whole entry): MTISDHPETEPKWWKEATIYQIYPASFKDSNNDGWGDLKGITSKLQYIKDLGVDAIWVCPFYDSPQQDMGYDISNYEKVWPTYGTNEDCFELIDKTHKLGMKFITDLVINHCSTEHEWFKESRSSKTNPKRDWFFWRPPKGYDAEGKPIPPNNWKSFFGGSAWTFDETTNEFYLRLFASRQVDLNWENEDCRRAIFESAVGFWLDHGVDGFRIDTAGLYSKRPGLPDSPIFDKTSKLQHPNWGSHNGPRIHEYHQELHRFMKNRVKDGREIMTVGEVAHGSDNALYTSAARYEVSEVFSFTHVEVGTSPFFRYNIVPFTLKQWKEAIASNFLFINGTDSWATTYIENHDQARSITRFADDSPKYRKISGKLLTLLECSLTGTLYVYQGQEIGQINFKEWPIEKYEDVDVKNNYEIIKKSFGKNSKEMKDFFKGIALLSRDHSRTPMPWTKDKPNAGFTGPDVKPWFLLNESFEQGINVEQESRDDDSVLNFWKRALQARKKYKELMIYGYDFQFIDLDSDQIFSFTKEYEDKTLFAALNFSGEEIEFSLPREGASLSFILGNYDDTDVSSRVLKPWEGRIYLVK

Where [1] appears, read: tested up to 1.0 mM, PBS pH 6.8, 37 °C, NA = not active, read-out: α-Glucosidase inhibitory activity IC50.
Where [2] appears, read: α-Glucosidase inhibitory activity IC50, tested up to 1.0 mM, PBS pH 6.8, 37 °C, NA = not active.
Setting [3] is: IC50 (Table 2, repeated beside docking results), S. cerevisiae α-glucosidase.
Where [4] appears, read: S. cerevisiae α-glucosidase, read-out: IC50 (Table 2, repeated beside docking results).

Read-outs that look alike come from different tables or passages of the source.

`CCCCCCCCCCCCCCCCCCC=CCCCCCCCC(=O)O` [Compound 7, n-Octacos-9-enoic acid]: the IC50 under setting [1] was 30.5 ± 0.41 µM.

As for `CCOC(=O)c1ccc(C(=O)OCC)c(Br)c1` [Compound 2, Diethyl 2-bromobenzene 1,4-dioate], the 50% inhibitory concentration (IC50) is 234 µM. This compound also yielded an IC50 under setting [2] of approximately 234 µM.

On to `C/C=C(\CC[C@@H](C)[C@H]1CC[C@H]2[C@@H]3CC=C4C[C@@H](O)CC[C@]4(C)[C@H]3CC[C@]12C)C(C)C` [Compound 3, Fucosterol], for which the IC50 was 289 µM under setting [3] and 289 ± 4.91 µM under setting [2].

For `CCCCCCCCCCCCCCCCCCCCCCCCCC(=O)O` [Compound 6, Cerotic acid], the IC50 under setting [4] was 660 µM and the IC50 under setting [1] was found to be 659.8 ± 2.15 µM.

In the case of `CCCCCCCCCCCCCCCC(=O)OC` [Compound 4, n-Hexadecanoic acid, methyl ester], the “α-glucosidase inhibition in words” value (in vitro) was “inactive”.

For the compound “Ethyl methyl 2-bromobenzene 1,4-dioate [Compound 1]”, the half-maximal inhibitory concentration (IC50) by setting is: under setting [4], 522 µM; under setting [1], 522 ± 0.51 µM.

As to `CCCCCCCCC=CCCCCCCCCCC(=O)O` [Compound 8, 11-Eicosenoic acid], the concentration for half-maximal inhibition (IC50) reads like this: under setting [3], 480 µM; under setting [2], 480 µM.
